For 22 molecules, Ki results are on record in US11655243B2, “Pyridine and pyrazine derivatives as preferential cannabinoid 2 agonists” (HOFFMANN-LA ROCHE INC., priority 2018, dated 2023).

The Ki is the dissociation constant of the complex between target and ligand, obtained from inhibition or displacement.

For one experiment, the target named is human CNR2 receptors (CB2 receptor) (Homo sapiens (Human), UniProt P34972). In words: Radioligand binding assay, human CB2 (CNR2).
human CNR2 receptors (CB2 receptor), sequence (P34972 whole entry): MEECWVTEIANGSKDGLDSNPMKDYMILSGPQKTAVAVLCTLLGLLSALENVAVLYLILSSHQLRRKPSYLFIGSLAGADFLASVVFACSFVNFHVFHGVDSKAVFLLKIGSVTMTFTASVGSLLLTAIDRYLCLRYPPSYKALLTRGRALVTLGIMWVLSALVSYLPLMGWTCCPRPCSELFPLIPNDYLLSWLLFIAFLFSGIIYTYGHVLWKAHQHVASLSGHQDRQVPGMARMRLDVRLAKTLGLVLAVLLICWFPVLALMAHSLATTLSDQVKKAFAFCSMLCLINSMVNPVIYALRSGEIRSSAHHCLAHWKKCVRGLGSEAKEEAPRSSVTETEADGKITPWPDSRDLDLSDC
Conditions: not given
How it is done: Radioligand Binding Assay
The affinity of the compounds of the invention for cannabinoid CB1 receptors was determined using recommended amounts of membrane preparations (PerkinElmer) of human embryonic kidney (HEK) cells expressing the human CNR1 or CNR2 receptors in conjunction with 1.5 or 2.6 nM [3H]-CP-55,940 (Perkin Elmer) as radioligand, respectively. Binding was performed in binding buffer (50 mM Tris, 5 mM MgCl2, 2.5 mM EDTA, and 0.5% (wt/vol) fatty acid free BSA, pH 7.4 for CB1 receptor and 50 mM Tris, 5 mM MgCl2, 2.5 mM EGTA, and 0.1% (wt/vol) fatty acid free BSA, pH 7.4 for CB2 receptor) in a total volume of 0.2 ml for 1 h at 30° C. shaking. The reaction was terminated by rapid filtration through microfiltration plates coated with 0.5% polyethylenimine (UniFilter GFB filter plate; Packard). Bound radioactivity was analyzed for Ki using nonlinear regression analysis (Activity Base, ID Business Solution, Limited), with the Kd values for [3H]CP55,940 determined from saturation experiments. The compounds of formula (I) show an excellent affinity for the CB2 receptor.
The compounds according to formula (I) have an activity in the above assay (Ki) between 0.5 nM and 10 μM. Particular compounds of formula (I) have an activity in the above assay (Ki) between 0.5 nM and 3 μM. Other particular compounds of formula (I) have an activity in the above assay (Ki) between 0.5 nM and 100 nM.
The molecule `CCC(CC)(NC(=O)c1ccc(N2CC(OC)C2)c(OC[C@H]2C[C@@H]2CO)n1)C(=O)OCF` (stereo in doubt) [Example 12, (+)-trans-Fluoromethyl 2-ethyl-2-{[6-{[-2-(hydroxymethyl)cyclopropyl]methoxy}-5-(3-methoxyazetidin-1-yl)pyridine-2-carbonyl]amino}butanoate] yielded a Ki of 0.4 nM.

Still in this experiment, the particulars now being: membranes of HEK cells expressing human CNR2, 2.6 nM [3H]-CP-55,940 radioligand; read-out: Binding assay human CB2 Ki.
`CCC(CC)(NC(=O)c1ccc(N2CC(F)C2)c(OC[C@H]2C[C@@H]2CO)n1)C(=O)N[C@H](CO)CC(C)C` (single isomer, unassigned) [Example 28, N-[1-Ethyl-1-[[(1S)-1-(hydroxymethyl)-3-methyl-butyl]carbamoyl]propyl]-5-(3-fluoroazetidin-1-yl)-6-[[(1S,2S)-2-(hydroxymethyl)cyclopropyl]methoxy]pyridine-2-carboxamide or N-[1-ethyl-1-[[(1S)-1-(hydroxymethyl)-3-methyl-butyl]carbamoyl]propyl]-5-(3-fluoroazetidin-1-yl)-6-[[(1R,2R)-2-(hydroxymethyl)cyclopropyl]methoxy]pyridine-2-carboxamide]: the Ki came to 3940 nM.

Turning to `CCC(CC)(NC(=O)c1ccc(N2CC(F)C2)c(OC[C@@H]2C[C@H]2CO)n1)C(=O)OCCCF` (single isomer, unassigned) [Example 29, 3-Fluoropropyl 2-ethyl-2-{[5-(3-fluoroazetidin-1-yl)-6-{[(1R,2R)-2-(hydroxymethyl)cyclopropyl]methoxy}pyridin-2-yl]formamido}butanoate or 3-fluoropropyl 2-ethyl-2-{[5-(3-fluoroazetidin-1-yl)-6-{[(1S,2S)-2-(hydroxymethyl)cyclopropyl]methoxy}pyridin-2-yl]formamido}butanoate], the inhibition constant (Ki) came out at 10.9 nM.

On to `CCC(CC)(NC(=O)c1ccc(N2CC(F)C2)c(OC[C@H]2C[C@@H]2CO)n1)C(=O)OCCCF` (single isomer, unassigned) [Example 30, 3-Fluoropropyl 2-ethyl-2-{[5-(3-fluoroazetidin-1-yl)-6-{[(1S,2S)-2-(hydroxymethyl)cyclopropyl]methoxy}pyridin-2-yl]formamido}butanoate or 3-fluoropropyl 2-ethyl-2-{[5-(3-fluoroazetidin-1-yl)-6-{[(1R,2R)-2-(hydroxymethyl)cyclopropyl]methoxy}pyridin-2-yl]formamido}butanoate], for which the inhibition constant Ki is 1.7 nM.

`CCOC(=O)C(CC)(CC)NC(=O)c1ccc(N2CC(OC)C2)c(OC[C@H]2C[C@@H]2COCF)n1` (stereo in doubt) [Example 9, (+)-trans-Ethyl 2-ethyl-2-{[6-({-2-[(fluoromethoxy)methyl]cyclopropyl}methoxy)-5-(3-methoxyazetidin-1-yl)pyridine-2-carbonyl]amino}butanoate]: the Ki was determined as 0.2 nM.

For `CCC(CC)(NC(=O)c1ccc(N2CC(OC)C2)c(OC[C@H]2C[C@@H]2CO)n1)C(=O)OCCF` (stereo in doubt) [Example 13, (+)-trans-2-Fluoroethyl 2-ethyl-2-{[6-{[-2-(hydroxymethyl)cyclopropyl]methoxy}-5-(3-methoxyazetidin-1-yl)pyridine-2-carbonyl]amino}butanoate], the Ki stood at 0.3 nM.

Turning to `CCOC(=O)C(CC)(CC)NC(=O)c1cc(F)c(N2CC(OC)C2)c(OCC2CC2)n1` [Example 7, Ethyl 2-{[6-(cyclopropylmethoxy)-4-fluoro-5-(3-methoxyazetidin-1-yl)pyridine-2-carbonyl]amino}-2-ethylbutanoate], the inhibition constant Ki was determined as 2.5 nM.

In the case of `CCOC(=O)C(CC)(CC)NC(=O)c1ccc(N2CC(OC)C2)c(OCC(C)(C)COCF)n1` [Example 8, Ethyl 2-ethyl-2-({6-[3-(fluoromethoxy)-2,2-dimethylpropoxy]-5-(3-methoxyazetidin-1-yl)pyridine-2-carbonyl}amino)butanoate], the inhibition constant Ki was 143 nM.

For `CCOC(=O)C(CC)(CC)NC(=O)c1ccc(N2CC(OC)C2)c(OC[C@@H]2C[C@H]2COCF)n1` [Example 10, (−)-trans-Ethyl 2-ethyl-2-{[6-({-2-[(fluoromethoxy)methyl]cyclopropyl}methoxy)-5-(3-methoxyazetidin-1-yl)pyridine-2-carbonyl]amino}butanoate], the Ki is 8.2 nM.

In the case of `CCC(CC)(NC(=O)c1ccc(N2CC(OC)C2)c(OC[C@@H]2C[C@H]2CO)n1)C(=O)OCF` [Example 11, (−)-trans-Fluoromethyl 2-ethyl-2-{[6-{[(1R,2R)-2-(hydroxymethyl)cyclopropyl]methoxy}-5-(3-methoxyazetidin-1-yl)pyridine-2-carbonyl]amino}butanoate], the Ki worked out at 9.7 nM.

For `CCC(CC)(NC(=O)c1ccc(N2CC(OC)C2)c(OC[C@@H]2C[C@H]2CO)n1)C(=O)OCCF` [Example 14, (−)-trans-2-Fluoroethyl 2-ethyl-2-{[6-{[-2-(hydroxymethyl)cyclopropyl]methoxy}-5-(3-methoxyazetidin-1-yl)pyridine-2-carbonyl]amino}butanoate], the Ki came out at 11.4 nM.

Take `CCC(CC)(NC(=O)c1ccc(N2CC(OC)C2)c(OC[C@H]2C[C@@H]2CO)n1)C(=O)OCCCF` [Example 15, 3-Fluoropropyl 2-ethyl-2-{[6-{[(1S,2S)-2-(hydroxymethyl)cyclopropyl]methoxy}-5-(3-methoxyazetidin-1-yl)pyridine-2-carbonyl]amino}butanoate]: the Ki worked out at 0.7 nM.

Take `CCC(CC)(NC(=O)c1ccc(N2CC(OC)C2)c(OC[C@@H]2C[C@H]2CO)n1)C(=O)OCCCF` [Example 16, 3-Fluoropropyl 2-ethyl-2-{[6-{[(1R,2R)-2-(hydroxymethyl)cyclopropyl]methoxy}-5-(3-methoxyazetidin-1-yl)pyridine-2-carbonyl]amino}butanoate]: the Ki turned out to be 18.8 nM.

For `COC1CN(c2ccc(C(=O)N[C@H](COCCF)CC(C)C)nc2OCC2COC2)C1` [Example 17, N-[(2S)-1-(2-Fluoroethoxy)-4-methylpentan-2-yl]-5-(3-methoxyazetidin-1-yl)-6-[(oxetan-3-yl)methoxy]pyridine-2-carboxamide], the Ki came out at 331 nM.

With `CC(C)C[C@@H](COCCF)NC(=O)c1ccc(N2CCCC2)c(OCC2COC2)n1` [Example 18, N-[(2S)-1-(2-Fluoroethoxy)-4-methylpentan-2-yl]-6-[(oxetan-3-yl)methoxy]-5-(pyrrolidin-1-yl)pyridine-2-carboxamide], the Ki turned out to be 21 nM.

For `[2H]C([2H])(F)C([2H])([2H])C([2H])([2H])OC(=O)C(CC)(CC)NC(=O)c1ccc(N2CC(OC)C2)c(OC[C@H]2C[C@@H]2CO)n1` [Example 19, (1,1,2,2,3,3-Hexadeuterio-3-fluoro-propyl) 2-ethyl-2-[[6-[[(1S,2S)-2-(hydroxymethyl)cyclopropyl]methoxy]-5-(3-methoxyazetidin-1-yl)pyridine-2-carbonyl]amino]butanoate], the Ki stood at 0.8 nM.

With `C=CC(C=C)(NC(=O)c1ccc(N2CC(OC)C2)c(OC[C@H]2C[C@@H]2CO)n1)C(=O)OCCCF` [Example 20, 3-Fluoropropyl 2-[6-[[(1S,2S)-2-(hydroxymethyl)cyclopropyl]methoxy]-5-(3-methoxyazetidin-1-yl)pyridine-2-carbonylamino]-2-vinyl-but-3-enoate], the Ki stood at 525 nM.

Take `CCC(CC)(NC(=O)c1ccc(N2CC(OC)C2)c(OC[C@H]2C[C@@H]2CO)n1)C(=O)OCCCOS(=O)(=O)c1ccc(C)cc1` [Example 23, 3-(p-Tolylsulfonyloxy)propyl 2-ethyl-2-[[6-[[(1S,2S)-2-(hydroxymethyl)cyclopropyl]methoxy]-5-(3-methoxyazetidin-1-yl)pyridine-2-carbonyl]amino]butanoate]: the Ki is 21.6 nM.

As for `[2H]C([2H])(OC(=O)C(CC)(CC)NC(=O)c1ccc(N2CC(OC)C2)c(OC[C@H]2C[C@@H]2CO)n1)C([2H])([2H])C([2H])([2H])OS(=O)(=O)c1ccc(C)cc1` [Example 24, [1,1,2,2,3,3-Hexadeuterio-3-(p-tolylsulfonyloxy)propyl] 2-ethyl-2-[[6-[[(1S,2S)-2-(hydroxymethyl)cyclopropyl]methoxy]-5-(3-methoxyazetidin-1-yl)pyridine-2-carbonyl]amino]butanoate], the Ki is 65.5 nM.

For `CCC(CC)(NC(=O)c1ccc(N2CC(OC)C2)c(OC[C@H]2C[C@@H]2CO)n1)C(=O)N[C@H](CO)CC(C)C` [Example 26, N-[1-Ethyl-1-[[(1S)-1-(hydroxymethyl)-3-methyl-butyl]carbamoyl]propyl]-6-[[(1S,2S)-2-(hydroxymethyl)cyclopropyl]methoxy]-5-(3-methoxyazetidin-1-yl)pyridine-2-carboxamide], the Ki was 130 nM.

Regarding `CCC(CC)(NC(=O)c1ccc(N2CC(OC)C2)c(OC[C@H]2C[C@@H]2COCc2ccccc2)n1)C(=O)OCCCF` [Example 32, 3-Fluoropropyl 2-[[6-[[(1S,2S)-2-(benzyloxymethyl)cyclopropyl]methoxy]-5-(3-methoxyazetidin-1-yl)pyridine-2-carbonyl]amino]-2-ethyl-butanoate], the Ki amounted to 246 nM.

With `CCC(CC)(NC(=O)c1ccc(N2CCCC2)c(OCC2(CO)COC2)n1)C(=O)OCF` [Example 33, Fluoromethyl 2-ethyl-2-[[6-[[3-(hydroxymethyl)oxetan-3-yl]methoxy]-5-pyrrolidin-1-yl-pyridine-2-carbonyl]amino]butanoate], the Ki is 348 nM.
